Assay results reported in patent publication US20240299385A1 (ReWind Therapeutics NV, priority 2021, published 2024).
pIC50: −log10 of the molar value.

Target: T1, human GPR17 receptor (Homo sapiens, UniProt Q13304)
T1 construct: host or cells: HEK-293
Assay: Calcium mobilization functional assay (Fluo-8, FLIPR TETRA) in HEK-293 hGPR17 (Gα-q assay)
Format: cell-based
Details: antagonism of MDL29,951 (~EC80) induced Ca2+ signal; cell line (HEK-293 hGPR17 or HEK-293 Suchi5 hGPR17) not given
Outline: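 Fluo-8-loaded HEK-293 hGPR17 cells (60 min dye loading, room temperature) were preincubated with compound for twenty minutes, then challenged with agonist MDL29,951 at ~EC80, 500 nM. Intracellular calcium release via Gα-q was recorded as FLIPR fluorescence for a further 2 minutes; compounds tested in duplicate.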

T1 sequence (Q13304 whole entry): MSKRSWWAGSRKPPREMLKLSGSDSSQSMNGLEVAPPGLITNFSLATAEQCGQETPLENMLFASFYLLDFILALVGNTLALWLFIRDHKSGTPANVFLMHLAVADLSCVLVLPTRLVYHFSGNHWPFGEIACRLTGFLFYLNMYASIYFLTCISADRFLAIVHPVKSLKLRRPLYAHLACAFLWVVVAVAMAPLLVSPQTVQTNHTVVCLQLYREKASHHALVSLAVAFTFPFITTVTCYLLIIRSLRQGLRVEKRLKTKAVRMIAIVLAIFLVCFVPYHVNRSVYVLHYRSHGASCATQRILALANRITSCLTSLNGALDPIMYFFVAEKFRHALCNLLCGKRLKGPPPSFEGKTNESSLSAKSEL

pIC50 | SMILES
> 6.30 | N#Cc1cccc(-c2cc(S(=O)(=O)Nc3cc(F)c(Br)cc3F)c[nH]2)c1 [Cpd 541, N-(4-bromo-2,5-difluorophenyl)-5-(3-cyanophenyl)-1H-pyrrole-3-sulfonamide]
> 6.30 | N#Cc1ccc(NS(=O)(=O)c2c[nH]c(-c3cccc(F)c3OC3CC3)c2)c(F)c1 [Cpd 542, N-(4-cyano-2-fluorophenyl)-5-(2-cyclopropyloxy-3-fluorophenyl)-1H-pyrrole-3-sulfonamide]
> 6.30 | N#Cc1ccc(NS(=O)(=O)c2c[nH]c(-c3ncc(F)cc3F)c2)c(F)c1 [Cpd 543, N-(4-cyano-2-fluorophenyl)-5-(3,5-difluoropyridin-2-yl)-1H-pyrrole-3-sulfonamide]
> 6.30 | COc1c(F)cccc1-c1cc(S(=O)(=O)Nc2cc(F)c(Br)cc2F)c[nH]1 [Cpd 544, N-(4-bromo-2,5-difluorophenyl)-5-(3-fluoro-2-methoxyphenyl)-1H-pyrrole-3-sulfonamide]
> 6.30 | N#Cc1ccc(NS(=O)(=O)c2c[nH]cc2Cc2ccc(F)c(Cl)c2)c(F)c1 [Cpd 545, 4-[(3-chloro-4-fluorophenyl)methyl]-N-(4-cyano-2-fluorophenyl)-1H-pyrrole-3-sulfonamide]
> 6.30 | N#Cc1ccc(NS(=O)(=O)c2c[nH]cc2Cc2cc(F)cc(F)c2)c(F)c1 [Cpd 546, N-(4-cyano-2-fluorophenyl)-4-[(3,5-difluorophenyl)methyl]-1H-pyrrole-3-sulfonamide]
5.30 to 6.30 | COc1cc(F)cc(Cc2c[nH]cc2S(=O)(=O)Nc2ccc(C#N)cc2F)c1 [Cpd 547, N-(4-cyano-2-fluorophenyl)-4-[(3-fluoro-5-methoxyphenyl)methyl]-1H-pyrrole-3-sulfonamide]
> 6.30 | N#Cc1cc(F)c(NS(=O)(=O)c2c[nH]cc2Cc2cccc(OC(F)F)c2)cc1F [Cpd 548, N-(4-cyano-2,5-difluorophenyl)-4-[[3-(difluoromethoxy)phenyl]methyl]-1H-pyrrole-3-sulfonamide]
> 6.30 | N#Cc1cc(F)c(NS(=O)(=O)c2c[nH]c(C3CCC3)c2)cc1F [Cpd 549, N-(4-cyano-2,5-difluorophenyl)-5-cyclobutyl-1H-pyrrole-3-sulfonamide]
> 6.30 | O=S(=O)(Nc1cc(F)c(OC(F)F)cc1F)c1c[nH]c(C2CCC2)c1 [Cpd 550, 5-cyclobutyl-N-[4-(difluoromethoxy)-2,5-difluorophenyl]-1H-pyrrole-3-sulfonamide]
> 6.30 | O=S(=O)(Nc1cc(F)c(Br)cc1F)c1c[nH]c(C2CCC2)c1 [Cpd 551, N-(4-bromo-2,5-difluorophenyl)-5-cyclobutyl-1H-pyrrole-3-sulfonamide]
5.30 to 6.30 | O=S(=O)(Nc1cc(F)c(OC(F)F)cc1F)c1c[nH]c(-c2cccc3cccnc23)c1 [Cpd 552, N-[4-(difluoromethoxy)-2,5-difluorophenyl]-5-quinolin-8-yl-1H-pyrrole-3-sulfonamide]
5.30 to 6.30 | O=S(=O)(Nc1cc(F)c(OC(F)F)cc1F)c1c[nH]c(-c2cccc3ccoc23)c1 [Cpd 553, 5-(1-benzofuran-7-yl)-N-[4-(difluoromethoxy)-2,5-difluorophenyl]-1H-pyrrole-3-sulfonamide]
> 6.30 | N#Cc1ccc(F)c(-c2cc(S(=O)(=O)Nc3cc(F)c(C(F)(F)F)cc3F)c[nH]2)c1 [Cpd 554, 5-(5-cyano-2-fluorophenyl)-N-[2,5-difluoro-4-(trifluoromethyl)phenyl]-1H-pyrrole-3-sulfonamide]
> 6.30 | Cn1cccc(-c2cc(S(=O)(=O)Nc3cc(F)c(C(F)(F)F)cc3F)c[nH]2)c1=O [Cpd 555, N-[2,5-difluoro-4-(trifluoromethyl)phenyl]-5-(1-methyl-2-oxopyridin-3-yl)-1H-pyrrole-3-sulfonamide]
> 6.30 | O=S(=O)(Nc1cc(F)c(C(F)(F)F)cc1F)c1c[nH]c(-c2cnccc2Cl)c1 [Cpd 556, 5-(4-chloropyridin-3-yl)-N-[2,5-difluoro-4-(trifluoromethyl)phenyl]-1H-pyrrole-3-sulfonamide]
> 6.30 | O=S(=O)(Nc1cc(F)c(C(F)(F)F)cc1F)c1c[nH]c(-c2c(F)ccnc2F)c1 [Cpd 557, 5-(2,4-difluoropyridin-3-yl)-N-[2,5-difluoro-4-(trifluoromethyl)phenyl]-1H-pyrrole-3-sulfonamide]
5.30 to 6.30 | O=S(=O)(Nc1cc(F)c(C(F)(F)F)cc1F)c1c[nH]cc1Cc1cccc(OC(F)F)c1 [Cpd 558, 4-[[3-(difluoromethoxy)phenyl]methyl]-N-[2,5-difluoro-4-(trifluoromethyl)phenyl]-1H-pyrrole-3-sulfonamide]
> 6.30 | O=S(=O)(Nc1cc(F)c(C(F)(F)F)cc1F)c1c[nH]c(-c2cnsc2)c1 [Cpd 559, N-[2,5-difluoro-4-(trifluoromethyl)phenyl]-5-(1,2-thiazol-4-yl)-1H-pyrrole-3-sulfonamide]
4.30 to 5.30 | COCc1cccnc1-c1cc(S(=O)(=O)Nc2cc(F)c(C(F)(F)F)cc2F)c[nH]1 [Cpd 560, N-[2,5-difluoro-4-(trifluoromethyl)phenyl]-5-[3-(methoxymethyl)pyridin-2-yl]-1H-pyrrole-3-sulfonamide]

pIC50 | SMILES
5.30 to 6.30 | O=S(=O)(Nc1cc(F)c(Br)cc1F)c1c[nH]c(-c2cccc3ccoc23)c1 [Cpd 561, 5-(1-benzofuran-7-yl)-N-(4-bromo-2,5-difluorophenyl)-1H-pyrrole-3-sulfonamide]
> 6.30 | N#Cc1ccc(NS(=O)(=O)c2c[nH]c(-c3csc(Cl)c3)c2)c(F)c1 [Cpd 562, 5-(5-chlorothiophen-3-yl)-N-(4-cyano-2-fluorophenyl)-1H-pyrrole-3-sulfonamide]
> 6.30 | N#Cc1ccc(NS(=O)(=O)c2c[nH]c(-c3cc(Cl)cs3)c2)c(F)c1 [Cpd 563, 5-(4-chlorothiophen-2-yl)-N-(4-cyano-2-fluorophenyl)-1H-pyrrole-3-sulfonamide]
5.30 to 6.30 | N#Cc1cccc(-c2cc(S(=O)(=O)Nc3cc(F)c(C(F)(F)F)cc3F)c[nH]2)c1F [Cpd 564, 5-(3-cyano-2-fluorophenyl)-N-[2,5-difluoro-4-(trifluoromethyl)phenyl]-1H-pyrrole-3-sulfonamide]
5.30 to 6.30 | O=S(=O)(Nc1cc(F)c(C(F)(F)F)cc1F)c1c[nH]c(-c2cccn3ccnc23)c1 [Cpd 565, N-[2,5-difluoro-4-(trifluoromethyl)phenyl]-5-imidazo[1,2-a]pyridin-8-yl-1H-pyrrole-3-sulfonamide]
5.30 to 6.30 | O=S(=O)(Nc1cc(F)c(C(F)(F)F)cc1F)c1c[nH]c(-c2cccc3ccnn23)c1 [Cpd 566, N-[2,5-difluoro-4-(trifluoromethyl)phenyl]-5-pyrazolo[1,5-a]pyridin-7-yl-1H-pyrrole-3-sulfonamide]
> 6.30 | O=S(=O)(Nc1cc(F)c(C(F)(F)F)cc1F)c1c[nH]c(-c2ccc3cccnn23)c1 [Cpd 567, N-[2,5-difluoro-4-(trifluoromethyl)phenyl]-5-pyrrolo[1,2-b]pyridazin-7-yl-1H-pyrrole-3-sulfonamide]
5.30 to 6.30 | O=S(=O)(Nc1cc(F)c(C(F)(F)F)cc1F)c1c[nH]cc1Cc1cccc(Cl)c1 [Cpd 568, 4-[(3-chlorophenyl)methyl]-N-[2,5-difluoro-4-(trifluoromethyl)phenyl]-1H-pyrrole-3-sulfonamide]
> 6.30 | N#Cc1cc(F)c(NS(=O)(=O)c2c[nH]cc2Cc2cccc(Cl)c2)cc1F [Cpd 569, 4-[(3-chlorophenyl)methyl]-N-(4-cyano-2,5-difluorophenyl)-1H-pyrrole-3-sulfonamide]
> 6.30 | N#Cc1ccc(NS(=O)(=O)c2c[nH]c(-c3ccc(F)s3)c2)c(F)c1 [Cpd 570, N-(4-cyano-2-fluorophenyl)-5-(5-fluorothiophen-2-yl)-1H-pyrrole-3-sulfonamide]
4.30 to 5.30 | CC1(C)CC(c2cc(S(=O)(=O)Nc3cc(F)c(C(F)(F)F)cc3F)c[nH]2)C1 [Cpd 571, N-[2,5-difluoro-4-(trifluoromethyl)phenyl]-5-(3,3-dimethylcyclobutyl)-1H-pyrrole-3-sulfonamide]
> 6.30 | N#Cc1cc(F)c(NS(=O)(=O)c2c[nH]c(-c3cccc4ccsc34)c2)cc1F [Cpd 572, 5-(1-benzothiophen-7-yl)-N-(4-cyano-2,5-difluorophenyl)-1H-pyrrole-3-sulfonamide]
5.30 to 6.30 | O=S(=O)(Nc1cc(F)c(C(F)(F)F)cc1F)c1c[nH]c(-c2ncccc2CF)c1 [Cpd 573, N-[2,5-difluoro-4-(trifluoromethyl)phenyl]-5-[3-(fluoromethyl)pyridin-2-yl]-1H-pyrrole-3-sulfonamide]
5.30 to 6.30 | N#Cc1cccc(Cc2c[nH]cc2S(=O)(=O)Nc2cc(F)c(C(F)(F)F)cc2F)c1 [Cpd 574, 4-[(3-cyanophenyl)methyl]-N-[2,5-difluoro-4-(trifluoromethyl)phenyl]-1H-pyrrole-3-sulfonamide]
> 6.30 | N#Cc1cc(F)c(NS(=O)(=O)c2c[nH]c(-c3cccc(Cl)n3)c2)cc1F [Cpd 575, 5-(6-chloropyridin-2-yl)-N-(4-cyano-2,5-difluorophenyl)-1H-pyrrole-3-sulfonamide]
5.30 to 6.30 | N#CCOc1cc(F)c(NS(=O)(=O)c2c[nH]c(-c3ccccc3)c2)cc1Cl [Cpd 576, N-[5-chloro-4-(cyanomethoxy)-2-fluorophenyl]-5-phenyl-1H-pyrrole-3-sulfonamide]
> 6.30 | Cc1cc(F)cnc1-c1cc(S(=O)(=O)Nc2ccc(C#N)cc2F)c[nH]1 [Cpd 577, N-(4-cyano-2-fluorophenyl)-5-(5-fluoro-3-methylpyridin-2-yl)-1H-pyrrole-3-sulfonamide]
> 6.30 | N#CCOc1cc(F)c(NS(=O)(=O)c2c[nH]c(C3CCC3)c2)cc1F [Cpd 578, N-[4-(cyanomethoxy)-2,5-difluorophenyl]-5-cyclobutyl-1H-pyrrole-3-sulfonamide]
5.30 to 6.30 | O=S(=O)(Nc1cc(F)c(C(F)(F)F)cc1F)c1c[nH]c(-c2ncccc2C(F)F)c1 [Cpd 580, 5-[3-(difluoromethyl)pyridin-2-yl]-N-[2,5-difluoro-4-(trifluoromethyl)phenyl]-1H-pyrrole-3-sulfonamide]
